Experimental data reported in PMC11286144 (Archives of biochemistry and biophysics, 2024).
Several values for one entry are separate records, joined by “and”; a condition that tells them apart may be missing. Equal values may be shown once.

Legend:
Test in all cases: BFC debenzylase activity assay
CYP3A4 (WT) = CYP3A4 (WT) (Homo sapiens, UniProt P08684)
K257A CYP3A4 = K257A CYP3A4 (Homo sapiens, UniProt P08684, K257A)
K266A CYP3A4 = K266A CYP3A4 (Homo sapiens, UniProt P08684, K266A)
Chain of K266A CYP3A4 (P08684 whole entry K266A): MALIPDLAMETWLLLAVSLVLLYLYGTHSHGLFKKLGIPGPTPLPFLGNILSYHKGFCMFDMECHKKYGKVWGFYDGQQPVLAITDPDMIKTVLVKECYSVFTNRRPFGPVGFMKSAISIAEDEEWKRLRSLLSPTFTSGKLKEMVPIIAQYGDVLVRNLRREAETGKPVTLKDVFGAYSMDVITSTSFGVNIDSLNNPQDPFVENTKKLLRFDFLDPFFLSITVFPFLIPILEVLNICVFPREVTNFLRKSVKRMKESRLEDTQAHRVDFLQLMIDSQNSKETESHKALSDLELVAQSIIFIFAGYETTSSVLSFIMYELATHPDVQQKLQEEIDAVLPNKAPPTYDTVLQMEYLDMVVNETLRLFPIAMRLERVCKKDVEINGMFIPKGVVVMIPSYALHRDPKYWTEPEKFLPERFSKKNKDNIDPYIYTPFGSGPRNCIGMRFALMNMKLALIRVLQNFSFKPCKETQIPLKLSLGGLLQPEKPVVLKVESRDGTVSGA

Chain of K257A CYP3A4 (P08684 whole entry K257A): as the sequence (P08684 whole entry K266A) above, with K257A, A266K counted along it
Chain of CYP3A4 (WT) (P08684 whole entry): as the sequence (P08684 whole entry K266A) above, with A266K counted along it

nH (Hill coefficient) (CYP3A4 (WT)): 1.8 and 1.8 ± 0.1
nH (Hill coefficient) (K257A CYP3A4; K257A CYP3A4): 1.0
higher Vmax than wild type (K257A CYP3A4; K257A CYP3A4 vs WT): 28%
nH (Hill coefficient) (K266A CYP3A4; K266A CYP3A4): 1.9 and 1.9 ± 0.1
higher Vmax than wild type (K266A CYP3A4; K266A CYP3A4 vs WT): 44%
SMILES: O=c1cc(C(F)(F)F)c2ccc(OCc3ccccc3)cc2o1 [BFC]
